Reference: patent US10245332B2, “Contrast agents for applications including perfusion imaging” (Lantheus Medical Imaging, Inc., priority 2008, dated 2019)

Experiments:
[1] = microPET imaging of NHP brain after intravenous injection; type: in vivo, nonhuman primates (NHP)
Method: Similarly, in nonhuman primates (NHP), about 3 mCi of Agent 1 or Agent 2 was injected intravenously and the brain of NHP was imaged in a microPET. […] The NHP brain was not visible when imaged with Agent 1.

tumor = experiment: Tumor uptake measured in mouse tumor models after imaging; type: in vivo; conditions: about 500 μCi intravenously
Method: Imaging studies using several mouse tumor models, including c-neu ONCO mice, nu/nu mice with OVCAR tumor, and nu/nu mice with HT1080 tumor, were conducted using contrast agents described herein. After administering anesthesia to the mouse, about 500 μCi of Agent 2 (from Table 1) were injected intravenously and the tumor was imaged in a microPET scanner. After imaging acquisition, images were reconstructed into tomographic views. […] In addition, tumor uptake of Agent 2 was measured in the mouse models after imaging. The uptake was detectable in a range from 1-4% injected dose per gram tissue.

[2] = microPET brain imaging in normal NHP (Example 13); type: in vivo, nonhuman primates (NHP); conditions: 30 minutes post injection of 5.1 mCi
Method: (§1) Imaging was performed with a microPET camera (Focus220, MICROPET) in anesthetized rats, rabbits and nonhuman primates (NHP) following the intravenous administration of 1, 2 and 3 mCi of ^18F labeled 2-tert-butyl-4-chloro-5-[4-(2-fluoro-ethoxymethyl)-benzyloy]-2H-pyridazin-3-one, also referred to herein as Agent 2. After count acquisition, images were constructed and manually re-orientated as a series of tomographic views. […] These images were acquired 30 minutes post injection (mpi) of 5.1 mCi of 2-tert-butyl-4-chloro-5-[4-(2-[^18F]fluoro-ethoxymethyl)-benzyloy]-2H-pyridazin-3-one and were decay corrected.

[3] = Intravenous injection during microPET imaging in normal animals: heart rate, ECG, adverse effects; type: in vivo, rats, rabbits and nonhuman primates; conditions: anesthetized animals
Method: as §1

[4] = microPET imaging of rat brain after intravenous injection; type: in vivo; conditions: about 1 mCi intravenously
Method: After anesthesia, about 1 mCi of Agent 2 or Agent 3 was injected into a rat intravenously and the rat brain was imaged in a microPET scanner. Following the image acquisition, the images were reconstructed into tomographic views.

SMILES | visibility of NHP brain in microPET images ([1]; NHP, about 3 mCi intravenously) | penetration into the brain, relative to Agent 2 ([1]; SAR study of Example 14) | tumor uptake (tumor) | transport into the brain (uptake and resolution of the images) [2] | changes in heart rate and ECG waveforms [3] | survival and adverse effects during image acquisition period [3] | passing the blood brain barrier and accumulating in the brain [4] | passing through blood brain barrier and accumulating in the brain ([1]; NHP, about 3 mCi intravenously)
CC(C)(C)n1ncc(OCc2ccc(CCCC[18F])cc2)c(Cl)c1=O [Agent 1, 2-tert-butyl-4-chloro-5-[4-(4-[^18F]fluoro-butyl)-benzyloxy]-2H-pyridazin-3-one] | not visible | decreased penetration into the brain |  |  |  |  |  | 
CC(C)(C)n1ncc(OCc2ccc(COCC[18F])cc2)c(Cl)c1=O [Agent 2, 2-tert-Butyl-4-chloro-5-[4-(2-(^18F)fluoroethoxymethyl)-benzyloxy]-2H-pyridazin-3-one] | visible |  | 1-4 % injected dose per gram tissue | efficiently transported into the brain | did not induce changes in heart rate and ECG waveforms | all animals survived the image acquisition period with no adverse effects | capable of passing the blood brain barrier and accumulating in the brain | capable of passing through blood brain barrier and accumulating in the brain
CC(C)(C)n1ncc(OCc2ccc(OCCC[18F])cc2)c(Cl)c1=O [Agent 3, 2-tert-Butyl-4-chloro-5-[4-(3-(^18F)fluoropropoxy)-benzyloxy]-2H-pyridazin-3-one] |  |  |  |  |  |  | unlike Agent 3, Agent 2 is capable of passing the blood brain barrier | 
